Patent US8247211B2, “Glycopeptide antibiotics” (American Cyanamid Company, priority 2001, dated 2012)
In brackets after ≈: the same amount, converted by molar mass.

Assays:
Experiment in all cases: In vitro antibacterial evaluation: minimum inhibitory concentration (MIC), broth dilution method
Format in all cases: cell-based
Enterococcus sp. = settings: 18 hours at 35° C.
Summary of the method: (§1)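 NCCLS M7-A2 broth dilution with Mueller-Hinton II, testing 64-0.06 μg/mL antibiotic against 5×10^5 CFU/mL inocula. Test strains include recent methicillin-, penicillin- or vancomycin-resistant clinical isolates. MIC is the lowest concentration preventing growth.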

Escherichia coli = settings: 18 hours at 35° C.
Summary of the method: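 First, organisms are seeded at 5×10^5 CFU/mL into Muller-Hinton II […]. Next, antibiotic is applied across 64-0.06 μg/mL by broth dilution (NCCLS M7-A2). Finally, the lowest inhibitory concentration is recorded as MIC.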

Staphylococcus sp. = settings: for MIC Staphylococcus haemolyticus (GC 4546): strain GC 4546; for MIC Coagulase Negative Staphylococcus (GC 4547): strain GC 4547; for MIC Coagulase Negative Staphylococcus (GC 4548): strain GC 4548; for MIC Coagulase Negative Staphylococcus (GC 4549): strain GC 4549; for MIC Coagulase Negative Staphylococcus (GC 4551): strain GC 4551
Summary of the method: as §1

Streptococcus sp. = settings: 18 hours at 35° C.
Summary of the method: as §1

[1] = Enterococcus faecalis (ATCC 29212)
[2] = Enterococcus faecalis (GC 2242)
[3] = Enterococcus faecalis (GC 2691)
[4] = Enterococcus faecalis (GC 4552)
[5] = Enterococcus faecalis (GC 4553)
[6] = Enterococcus faecalis (GC 6189)
[7] = broth dilution, inoculum 5×10^5 CFU/mL
[8] = Streptococcus agalactiae (GC 4564)
[9] = Streptococcus pneumoniae (ATCC 6301)
[10] = Streptococcus pneumoniae (GC 1894)
[11] = Streptococcus pneumoniae (GC 4565)
[12] = Streptococcus pyogenes (GC 4563)

## CC(c1ccccc1)C1NC(=O)CNC(=O)C(CO)NC(=O)C(C(O)C2CN(c3nc4ccccc4o3)C(=N)N2C2OC(CO)C(O)C(O)C2O)NC(=O)C(C(O)C2CNC(=Nc3nc4ccccc4o3)N2)NC(=O)C(Cc2ccc(OC3OC(CO)C(OC4OC5COC6(OC5C(O)C4O)C4CC5CC(C4)CC6C5)C(O)C3O)cc2)NC1=O (stereo not drawn) [Example 227, Di-N-(2-(1,3-benzoxazolyl)-cyclo[glycyl-β-methylphenylalanyl-O-[4-O-[4,6-O-(2-adamantylidene)hexopyranosyl]hexopyranosyl]tyrosyl-3-[2-iminoimidazolidin-4-yl]seryl-3-β-hexopyranosyl-2-iminoimidazolidin-4-yl]serylseryl]]
Enterococcus sp.; Enterococcus avium (GC 4558)
  MIC Enterococcus avium (GC 4558): 8 µg/mL (≈ 4.81 µM)
Enterococcus sp.; [1]
  MIC Enterococcus faecalis (ATCC 29212): 64 µg/mL (≈ 38.5 µM)
Enterococcus sp.; [2]
  MIC Enterococcus faecalis (GC 2242): 64 µg/mL (≈ 38.5 µM)
Enterococcus sp.; [3]
  MIC Enterococcus faecalis (GC 2691): 64 µg/mL (≈ 38.5 µM)
Enterococcus sp.; [4]
  MIC Enterococcus faecalis (GC 4552): 64 µg/mL (≈ 38.5 µM)
Enterococcus sp.; [5]
  MIC Enterococcus faecalis (GC 4553): 8 µg/mL (≈ 4.81 µM)
Enterococcus sp.; [6]
  MIC Enterococcus faecalis (GC 6189): 64 µg/mL (≈ 38.5 µM)
Enterococcus sp.; Enterococcus faecium (GC 2243)
  MIC Enterococcus faecium (GC 2243): 32 µg/mL (≈ 19.3 µM)
Enterococcus sp.; Enterococcus faecium (GC 4556)
  MIC Enterococcus faecium (GC 4556): 64 µg/mL (≈ 38.5 µM)
Enterococcus sp.; Enterococcus faecium (GC 4557)
  MIC Enterococcus faecium (GC 4557): 8 µg/mL (≈ 4.81 µM)
Enterococcus sp.; [7]
  MIC Enterococcus avium (GC 4558): 8 µg/mL (≈ 4.81 µM)
  MIC Enterococcus faecalis (ATCC 29212): 64 µg/mL (≈ 38.5 µM)
  MIC Enterococcus faecalis (GC 2242): 64 µg/mL (≈ 38.5 µM)
  MIC Enterococcus faecalis (GC 2691): 64 µg/mL (≈ 38.5 µM)
  MIC Enterococcus faecalis (GC 4552): 64 µg/mL (≈ 38.5 µM)
  MIC Enterococcus faecalis (GC 4553): 8 µg/mL (≈ 4.81 µM)
  MIC Enterococcus faecalis (GC 6189): 64 µg/mL (≈ 38.5 µM)
  MIC Enterococcus faecium (GC 2243): 32 µg/mL (≈ 19.3 µM)
  MIC Enterococcus faecium (GC 4556): 64 µg/mL (≈ 38.5 µM)
  MIC Enterococcus faecium (GC 4557): 8 µg/mL (≈ 4.81 µM)
Escherichia coli
  MIC Escherichia coli (GC 4560): 8 µg/mL (≈ 4.81 µM)
Staphylococcus sp.
  MIC Staphylococcus haemolyticus (GC 4546): 64 µg/mL (≈ 38.5 µM)
  MIC Coagulase Negative Staphylococcus (GC 4547): 32 µg/mL (≈ 19.3 µM)
  MIC Coagulase Negative Staphylococcus (GC 4548): 4 µg/mL (≈ 2.41 µM)
  MIC Coagulase Negative Staphylococcus (GC 4549): 32 µg/mL (≈ 19.3 µM)
  MIC Coagulase Negative Staphylococcus (GC 4551): 8 µg/mL (≈ 4.81 µM)
Streptococcus sp.; [8]
  MIC Streptococcus agalactiae (GC 4564): 64 µg/mL (≈ 38.5 µM)
Streptococcus sp.; [9]
  MIC Streptococcus pneumoniae (ATCC 6301): 32 µg/mL (≈ 19.3 µM)
Streptococcus sp.; [10]
  MIC Streptococcus pneumoniae (GC 1894): 32 µg/mL (≈ 19.3 µM)
Streptococcus sp.; [11]
  MIC Streptococcus pneumoniae (GC 4565): 64 µg/mL (≈ 38.5 µM)
Streptococcus sp.; [12]
  MIC Streptococcus pyogenes (GC 4563): 32 µg/mL (≈ 19.3 µM)
Streptococcus sp.; [7]
  MIC Streptococcus agalactiae (GC 4564): 64 µg/mL (≈ 38.5 µM)
  MIC Streptococcus pneumoniae (ATCC 6301): 32 µg/mL (≈ 19.3 µM)
  MIC Streptococcus pneumoniae (GC 1894): 32 µg/mL (≈ 19.3 µM)
  MIC Streptococcus pneumoniae (GC 4565): 64 µg/mL (≈ 38.5 µM)
  MIC Streptococcus pyogenes (GC 4563): 32 µg/mL (≈ 19.3 µM)

## CC(c1ccccc1)C1NC(=O)CNC(=O)C(CO)NC(=O)C(C(O)C2CN(c3ncccn3)C(=N)N2C2OC(CO)C(O)C(O)C2O)NC(=O)C(C(O)C2CNC(=Nc3ncccn3)N2)NC(=O)C(Cc2ccc(OC3OC(CO)C(OC4OC5COC6(OC5C(O)C4O)C4CC5CC(C4)CC6C5)C(O)C3O)cc2)NC1=O (stereo not drawn) [Example 228, Di-N-(2-(pyrimidinyl)-cyclo[glycyl-β-methylphenylalanyl-O-[4-O-[4,6-O-(2-adamantylidene)hexopyranosyl]hexopyranosyl]tyrosyl-3-[2-iminoimidazolidin-4-yl]seryl-3-β-hexopyranosyl-2-iminoimidazolidin-4-yl]serylseryl]]
Enterococcus sp.; Enterococcus avium (GC 4558)
  MIC Enterococcus avium (GC 4558): 8 µg/mL (≈ 5.05 µM)
Enterococcus sp.; [1]
  MIC Enterococcus faecalis (ATCC 29212): 32 µg/mL (≈ 20.2 µM)
Enterococcus sp.; [2]
  MIC Enterococcus faecalis (GC 2242): 32 µg/mL (≈ 20.2 µM)
Enterococcus sp.; [3]
  MIC Enterococcus faecalis (GC 2691): 32 µg/mL (≈ 20.2 µM)
Enterococcus sp.; Enterococcus faecalis (GC 3059)
  MIC Enterococcus faecalis (GC 3059): 32 µg/mL (≈ 20.2 µM)
Enterococcus sp.; [4]
  MIC Enterococcus faecalis (GC 4552): 32 µg/mL (≈ 20.2 µM)
Enterococcus sp.; [5]
  MIC Enterococcus faecalis (GC 4553): 16 µg/mL (≈ 10.1 µM)
Enterococcus sp.; Enterococcus faecalis (GC 4554)
  MIC Enterococcus faecalis (GC 4554): 32 µg/mL (≈ 20.2 µM)
Enterococcus sp.; [6]
  MIC Enterococcus faecalis (GC 6189): 32 µg/mL (≈ 20.2 µM)
Enterococcus sp.; Enterococcus faecium (GC 2243)
  MIC Enterococcus faecium (GC 2243): 16 µg/mL (≈ 10.1 µM)
Enterococcus sp.; Enterococcus faecium (GC 4556)
  MIC Enterococcus faecium (GC 4556): 32 µg/mL (≈ 20.2 µM)
Enterococcus sp.; Enterococcus faecium (GC 4557)
  MIC Enterococcus faecium (GC 4557): 16 µg/mL (≈ 10.1 µM)
Enterococcus sp.; [7]
  MIC Enterococcus avium (GC 4558): 8 µg/mL (≈ 5.05 µM)
  MIC Enterococcus faecalis (ATCC 29212): 32 µg/mL (≈ 20.2 µM)
  MIC Enterococcus faecalis (GC 2242): 32 µg/mL (≈ 20.2 µM)
  MIC Enterococcus faecalis (GC 2691): 32 µg/mL (≈ 20.2 µM)
  MIC Enterococcus faecalis (GC 3059): 32 µg/mL (≈ 20.2 µM)
  MIC Enterococcus faecalis (GC 4552): 32 µg/mL (≈ 20.2 µM)
  MIC Enterococcus faecalis (GC 4553): 16 µg/mL (≈ 10.1 µM)
  MIC Enterococcus faecalis (GC 4554): 32 µg/mL (≈ 20.2 µM)
  MIC Enterococcus faecalis (GC 6189): 32 µg/mL (≈ 20.2 µM)
  MIC Enterococcus faecium (GC 2243): 16 µg/mL (≈ 10.1 µM)
  MIC Enterococcus faecium (GC 4556): 32 µg/mL (≈ 20.2 µM)
  MIC Enterococcus faecium (GC 4557): 16 µg/mL (≈ 10.1 µM)
Escherichia coli; Escherichia coli (ATCC 25922)
  MIC Escherichia coli (ATCC 25922): >64 µg/mL
Escherichia coli; Escherichia coli (GC 4559)
  MIC Escherichia coli (GC 4559): >64 µg/mL
Escherichia coli
  MIC Escherichia coli (GC 4560): 16 µg/mL (≈ 10.1 µM)
Staphylococcus sp.; strain ATCC 29213
  MIC Staphylococcus aureus (ATCC 29213): 32 µg/mL (≈ 20.2 µM)
Staphylococcus sp.; strain GC 1131
  MIC Staphylococcus aureus (GC 1131): 32 µg/mL (≈ 20.2 µM)
Staphylococcus sp.; strain GC 3051
  MIC Staphylococcus aureus (GC 3051): 32 µg/mL (≈ 20.2 µM)
Staphylococcus sp.; strain GC 3053
  MIC Staphylococcus aureus (GC 3053): 32 µg/mL (≈ 20.2 µM)
Staphylococcus sp.; strain GC 4541
  MIC Staphylococcus aureus (GC 4541): 32 µg/mL (≈ 20.2 µM)
Staphylococcus sp.; strain GC 4542
  MIC Staphylococcus aureus (GC 4542): 32 µg/mL (≈ 20.2 µM)
Staphylococcus sp.; strain GC 4543
  MIC Staphylococcus aureus-SMITH (GC 4543): 32 µg/mL (≈ 20.2 µM)
Staphylococcus sp.; strain GC 4544
  MIC Staphylococcus aureus (GC 4544): 32 µg/mL (≈ 20.2 µM)
Staphylococcus sp.; strain GC 4545
  MIC Staphylococcus aureus (GC 4545): 32 µg/mL (≈ 20.2 µM)
Staphylococcus sp.
  MIC Staphylococcus haemolyticus (GC 4546): 16 µg/mL (≈ 10.1 µM)
  MIC Coagulase Negative Staphylococcus (GC 4547): 16 µg/mL (≈ 10.1 µM)
  MIC Coagulase Negative Staphylococcus (GC 4548): 16 µg/mL (≈ 10.1 µM)
  MIC Coagulase Negative Staphylococcus (GC 4549): 16 µg/mL (≈ 10.1 µM)
  MIC Coagulase Negative Staphylococcus (GC 4551): 16 µg/mL (≈ 10.1 µM)
Streptococcus sp.; [8]
  MIC Streptococcus agalactiae (GC 4564): 16 µg/mL (≈ 10.1 µM)
Streptococcus sp.; [9]
  MIC Streptococcus pneumoniae (ATCC 6301): 8 µg/mL (≈ 5.05 µM)
Streptococcus sp.; [10]
  MIC Streptococcus pneumoniae (GC 1894): 8 µg/mL (≈ 5.05 µM)
Streptococcus sp.; [11]
  MIC Streptococcus pneumoniae (GC 4565): 8 µg/mL (≈ 5.05 µM)
Streptococcus sp.; [12]
  MIC Streptococcus pyogenes (GC 4563): 8 µg/mL (≈ 5.05 µM)
Streptococcus sp.; [7]
  MIC Streptococcus agalactiae (GC 4564): 16 µg/mL (≈ 10.1 µM)
  MIC Streptococcus pneumoniae (ATCC 6301): 8 µg/mL (≈ 5.05 µM)
  MIC Streptococcus pneumoniae (GC 1894): 8 µg/mL (≈ 5.05 µM)
  MIC Streptococcus pneumoniae (GC 4565): 8 µg/mL (≈ 5.05 µM)
  MIC Streptococcus pyogenes (GC 4563): 8 µg/mL (≈ 5.05 µM)
